# Substitutions are numbered along the chain they refer to.
# Assays:
# [1] = target: T1, ABCG2 (Homo sapiens, UniProt Q9UNQ0); assay: biochemical; set-up: full-length ABCG2-WT in membrane vesicles; species or system ABCG2 membrane vesicles; Hoechst 33342 concentration-dependent thermal stabilization of ABCG2, western blot read-out, without ATP; conditions: thermal stabilization, without ATP
# T1 sequence (Q9UNQ0 1-655): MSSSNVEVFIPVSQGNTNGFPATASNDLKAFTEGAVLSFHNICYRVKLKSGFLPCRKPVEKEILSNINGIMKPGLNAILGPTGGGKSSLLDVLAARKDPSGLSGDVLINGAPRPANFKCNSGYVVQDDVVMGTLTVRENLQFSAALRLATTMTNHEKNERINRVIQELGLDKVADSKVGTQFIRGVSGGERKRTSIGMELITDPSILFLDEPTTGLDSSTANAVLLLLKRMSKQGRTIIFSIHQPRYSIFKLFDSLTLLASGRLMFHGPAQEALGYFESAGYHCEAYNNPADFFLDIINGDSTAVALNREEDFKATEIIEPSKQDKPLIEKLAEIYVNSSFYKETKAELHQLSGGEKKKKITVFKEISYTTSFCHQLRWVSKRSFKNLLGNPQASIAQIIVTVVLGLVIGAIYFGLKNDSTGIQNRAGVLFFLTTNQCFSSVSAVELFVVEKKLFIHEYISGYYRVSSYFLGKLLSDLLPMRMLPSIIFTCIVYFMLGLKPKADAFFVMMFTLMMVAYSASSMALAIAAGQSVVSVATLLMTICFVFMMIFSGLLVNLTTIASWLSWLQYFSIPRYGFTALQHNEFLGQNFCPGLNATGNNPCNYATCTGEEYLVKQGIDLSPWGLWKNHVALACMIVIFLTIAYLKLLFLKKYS
# [2] = target: T2, ABCG2 E211Q (Homo sapiens, UniProt Q9UNQ0, E211Q); assay: biochemical; set-up: species or system ABCG2 membrane vesicles; Hoechst 33342 concentration-dependent thermal stabilization of ABCG2, western blot read-out, without ATP; conditions: thermal stabilization, without ATP
# T2 construct: full-length ABCG2-WT in membrane vesicles
# T2 sequence (Q9UNQ0 1-655 E211Q): T1 sequence (Q9UNQ0 1-655) with E211Q
# Text: (§1) The difference between ABCG-WT and ABCG2-N436A was not due to a difference in Hoechst 33342 initial uptake, given that the initial rate of uptake was linear and the slopes virtually identical for ABCG2-WT and ABCG2-N436A (Fig. 1d). The steady-state level of Hoechst 33342 was twofold lower in ABCG2-N436A cells (Fig. 1d). Steady-state drug levels represent an equilibrium between uptake and efflux rates, which can be used to estimate the rate of drug efflux. The twofold lower steady-state level of Hoechst 33342 in cells expressing ABCG2-N436A, therefore, indicates an estimated twofold increase in efflux (Fig. 1d). Direct monitoring of Hoechst 33342 efflux is not possible because of its avidity for binding to the minor groove of DNA, leaving little free Hoechst 33342 available for assessing efflux. This effect is also responsible for Hoechst 33342’s cytotoxicity, a property that we utilized as an additional approach to assess ABCG2 transport activity. […] The greater reduction in Hoechst 33342 cytotoxicity in ABCG2-N436A may be because Hoechst 33342 cytotoxicity occurs by a dual process of DNA binding and topoisomerase inhibition, both of which promote cytotoxic DNA damage. […] Consistent with the lower EC50 value of ATP (0.3 mM) for ABCG2-N436A, ABCG2-N436A was thermally stabilized by the non-hydrolyzable ATP analog AMP-PNP at lower concentrations than ABCG2-WT
# [3] = target: T3, ABCG2 K86M (Homo sapiens, UniProt Q9UNQ0, K86M); assay: biochemical; set-up: species or system ABCG2 membrane vesicles; Hoechst 33342 concentration-dependent thermal stabilization of ABCG2, western blot read-out, without ATP; conditions: thermal stabilization, without ATP
# T3 construct: full-length ABCG2-WT in membrane vesicles
# T3 sequence (Q9UNQ0 1-655 K86M): T1 sequence (Q9UNQ0 1-655) with K86M
# Text: as §1
# [4] = target: T4, ABCG2 (Homo sapiens, UniProt Q9UNQ0); assay: isothermal shift assay on membranes; inhibition of vanadate-sensitive ATPase in membranes; transport assay; assay type: biochemical
# T4 construct: full-length ABCG2-WT in membrane vesicles
# [5] = target: T1, ABCG2; assay: cell-based; set-up: full-length ABCG2-WT in MEF cells; species or system MEF (mouse embryonic fibroblasts) expressing human ABCG2-WT; Inhibition of ABCG2-mediated Hoechst 33342 transport; intracellular Hoechst 33342 fluorescence accumulation; conditions: ABCG2-WT, 0.5 uM Hoechst 33342; read-out: Hoechst 33342 transport inhibition IC50
# Protocol: The intracellular accumulation of fluorescent Hoechst 33342, pheophorbide a, chlorin e6, and purpurin 18, ABCG2 substrates, was used to determine the function of ABCG2. For Hoechst 33342 accumulation assay, MEFs were seeded into a 96-well black clear bottom plate (Corning #3603) at 20,000 cells/well and 0.5 μM Hoechst 33342, and either [compound left out] or the test inhibitor (0.002–10 μM) were added to the culture medium followed by incubation for 2 h at 37 °C in the dark. Thereafter, the medium was removed, and cells were washed twice with 200 μL ice-cold PBS and the fluorescence of Hoechst 33342 was then quantitatively determined with a Synergy H4 microplate reader (BioTek, Winooski, VT, USA) at an excitation wavelength of 355 nm and an emission wavelength of 460 nm. The accumulation of Hoechst 33342 was normalized to protein concentration as determined using the BCA Protein Assay Kit (Pierce, Rockford, IL, USA). […] The intracellular accumulation of pheophorbide a, purpurin 18, or chlorin e6 was measured at an excitation wavelength of 405 nm and an emission wavelength of 667 nm. […] The total radioactivity was measured by liqu Fig. 4 N436A substitution affects inhibitor interaction. a–d Representative snapshots from MDS of tariquidar interacting with ABCG2. a ABCG2-WT with residues within 4 Å of tariquidar are in surface representation. […]
# [6] = target: T1, ABCG2; assay: cell-based; set-up: full-length ABCG2-WT in MEF cells; species or system Abcg2-KO MEFs expressing human ABCG2-WT; Inhibition of ABCG2-mediated Hoechst 33342 efflux; intracellular Hoechst 33342 fluorescence accumulation, normalized to vector control; conditions: 0.5 uM Hoechst 33342 substrate, 2 h, 37 °C; read-out: IC50 for transport inhibition in WT
# Protocol: The intracellular accumulation of fluorescent Hoechst 33342, pheophorbide a, chlorin e6, and purpurin 18, ABCG2 substrates, was used to determine the function of ABCG2. […] Thereafter, the medium was removed, and cells were washed twice with 200 μL ice-cold PBS and the fluorescence of Hoechst 33342 was then quantitatively determined with a Synergy H4 microplate reader (BioTek, Winooski, VT, USA) at an excitation wavelength of 355 nm and an emission wavelength of 460 nm. The accumulation of Hoechst 33342 was normalized to protein concentration as determined using the BCA Protein Assay Kit (Pierce, Rockford, IL, USA). The data were normalized by the proportion accumulated relative (%) to vector control. For the time-dependent Hoechst 33342 accumulation assay, 10 μM Hoechst 33342 was treated for different time periods (0.5, 1, 1.5, 2, 5, 10, 20, 30, 60, and 90 min). Relative intracellular Hoechst 33342 levels in the MEFs were normalized to vector control at 90 min. For the other fluorescent substrate accumulation assay, 0.5 μM pheophorbide a, 5 μM chlorin e6, or 5 μM purpurin 18 were treated for 1 h at 37 °C in the dark. The intracellular accumulation of pheophorbide a, purpurin 18, or chlorin e6 was measured at an excitation wavelength of 405 nm and an emission wavelength of 667 nm. […] Thereafter, the medium was removed and cells were washed twice with 1 mL ice-cold PBS. […] The total radioactivity was measured by liqu Apparent EC50 and IC50 values were calculated from dose-response data using nonlinear regression analysis. All experiments were independently repeated at least three times. […] Non-polar residues are grey, polar residues are green, and acidic residues are red.
smiles,measurement,setting,value
CCOc1ccc(-c2nc3cc(-c4nc5cc(N6CCN(C)CC6)ccc5[nH]4)ccc3[nH]2)cc1 [Hoechst 33342],EC50,[1],8.8 ± 1.9 µM
same,EC50,[2],16 ± 3 µM
same,EC50,[3],31 ± 1 µM
same,IC50,[4],35 µM
CNC(=O)c1ccccc1Sc1ccc2c(/C=C/c3ccccn3)n[nH]c2c1 [Axitinib],IC50,[5],6.04 µM
CCCS(=O)(=O)Nc1ccc(F)c(C(=O)c2c[nH]c3ncc(-c4ccc(Cl)cc4)cc23)c1F [Vemurafenib],IC50,[6],4.15 µM
COc1cc2nccc(Oc3ccc(NC(=O)C4(C(=O)Nc5ccc(F)cc5)CC4)cc3)c2cc1OC [Cabozantinib],IC50,[6],2.4 µM
C#Cc1cccc(Nc2ncnc3cc(OCCOC)c(OCCOC)cc23)c1 [Erlotinib],IC50,[6],0.77 µM
CNC(=O)c1cc(Oc2ccc(NC(=O)Nc3ccc(Cl)c(C(F)(F)F)c3)cc2)ccn1 [Sorafenib],IC50,[6],4.34 µM

# Source: PMC10439158, “The net electrostatic potential and hydration of ABCG2 affect substrate transport” (Nature Communications, 2023)
